Data: patent US20230117034A1, “PYRAZOLOTRIAZINES” (Bayer Aktiengesellschaft, priority 2019, published 2023)
pIC50: −log10 of the molar value.

What was measured:
[1] = molecular target: T1, CDK2/CycE (Homo sapiens, UniProt P24941); test: CDK2/CycE kinase assay (TR-FRET, 2 mM ATP); assay type: biochemical; conditions: 2 mM ATP (high ATP); median; read-out: CDK2/CyclinE, 2 mM ATP (high ATP), IC50 (median)
T1 construct: purchased ProQinase GmbH (Freiburg, Germany); host or cells: insect cells (Sf9)
Method in brief: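 Biotin-peptide phosphorylation (0.75 µM substrate, 2 mM ATP final, 25 min, 22 °C) by Sf9-expressed GST-CDK2/GST-CycE, after a 15-min compound pre-binding step. Inhibition scaled between enzyme-free (100%) and uninhibited (0%) wells.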

[2] = molecular target: T2, CDK12 (nuclear staining in CAL-120 cells) (Homo sapiens, UniProt Q9NYV4); test: CDK12 nuclear protein level: immunofluorescence/high content analysis (CAL-120); assay type: cell-based; conditions: for DC50: CAL-120 cells, 24 h, immunofluorescence, 50% reduction of nuclear CDK12 staining intensity, median, read-out: CDK12 degradation IF, DC50- [mol/l] (median); for (IC50 CDK12 high ATP) to (Degradation DC50 CDK12) ratio: ratio of IC50 CDK12 high ATP kinase assay to DC50 CDK12 degradation (IF, CAL-120)
T2 construct: endogenous in cells; host or cells: CAL-120 human breast cancer cells (DSMZ ACC 459)
Method in brief: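 DC50 is the degrader concentration that halves nuclear CDK12 immunofluorescence relative to controls, measured by high-content imaging. CAL-120 cells were exposed to compound for 24 h at 37 °C before PFA fixation, and signal was normalized to DMSO and control wells.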

[3] = molecular target: T3, CYCLIN K (nuclear staining in CAL-120 cells) (Homo sapiens, UniProt O75909); test: CYCLIN K nuclear protein level: immunofluorescence high content analysis (CAL-120); assay type: cell-based; conditions: 24 h, 50% reduction of nuclear CCNK staining intensity, median, read-out: CYCLIN K degradation IF, DC50-[mol/l] (median)
T3 construct: endogenous in cells; host or cells: CAL-120 human breast cancer cells (DSMZ ACC 459)
Method in brief: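 Readout is automated confocal image analysis of nuclear cyclin K immunofluorescence (Hoechst nuclei) after PFA fixation. Cells were CAL-120, exposed to compound dose-response 24 h at 37 °C; values are DC50 for halving nuclear CCNK signal relative to DMSO and control wells.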

T2 sequence (Q9NYV4 whole entry): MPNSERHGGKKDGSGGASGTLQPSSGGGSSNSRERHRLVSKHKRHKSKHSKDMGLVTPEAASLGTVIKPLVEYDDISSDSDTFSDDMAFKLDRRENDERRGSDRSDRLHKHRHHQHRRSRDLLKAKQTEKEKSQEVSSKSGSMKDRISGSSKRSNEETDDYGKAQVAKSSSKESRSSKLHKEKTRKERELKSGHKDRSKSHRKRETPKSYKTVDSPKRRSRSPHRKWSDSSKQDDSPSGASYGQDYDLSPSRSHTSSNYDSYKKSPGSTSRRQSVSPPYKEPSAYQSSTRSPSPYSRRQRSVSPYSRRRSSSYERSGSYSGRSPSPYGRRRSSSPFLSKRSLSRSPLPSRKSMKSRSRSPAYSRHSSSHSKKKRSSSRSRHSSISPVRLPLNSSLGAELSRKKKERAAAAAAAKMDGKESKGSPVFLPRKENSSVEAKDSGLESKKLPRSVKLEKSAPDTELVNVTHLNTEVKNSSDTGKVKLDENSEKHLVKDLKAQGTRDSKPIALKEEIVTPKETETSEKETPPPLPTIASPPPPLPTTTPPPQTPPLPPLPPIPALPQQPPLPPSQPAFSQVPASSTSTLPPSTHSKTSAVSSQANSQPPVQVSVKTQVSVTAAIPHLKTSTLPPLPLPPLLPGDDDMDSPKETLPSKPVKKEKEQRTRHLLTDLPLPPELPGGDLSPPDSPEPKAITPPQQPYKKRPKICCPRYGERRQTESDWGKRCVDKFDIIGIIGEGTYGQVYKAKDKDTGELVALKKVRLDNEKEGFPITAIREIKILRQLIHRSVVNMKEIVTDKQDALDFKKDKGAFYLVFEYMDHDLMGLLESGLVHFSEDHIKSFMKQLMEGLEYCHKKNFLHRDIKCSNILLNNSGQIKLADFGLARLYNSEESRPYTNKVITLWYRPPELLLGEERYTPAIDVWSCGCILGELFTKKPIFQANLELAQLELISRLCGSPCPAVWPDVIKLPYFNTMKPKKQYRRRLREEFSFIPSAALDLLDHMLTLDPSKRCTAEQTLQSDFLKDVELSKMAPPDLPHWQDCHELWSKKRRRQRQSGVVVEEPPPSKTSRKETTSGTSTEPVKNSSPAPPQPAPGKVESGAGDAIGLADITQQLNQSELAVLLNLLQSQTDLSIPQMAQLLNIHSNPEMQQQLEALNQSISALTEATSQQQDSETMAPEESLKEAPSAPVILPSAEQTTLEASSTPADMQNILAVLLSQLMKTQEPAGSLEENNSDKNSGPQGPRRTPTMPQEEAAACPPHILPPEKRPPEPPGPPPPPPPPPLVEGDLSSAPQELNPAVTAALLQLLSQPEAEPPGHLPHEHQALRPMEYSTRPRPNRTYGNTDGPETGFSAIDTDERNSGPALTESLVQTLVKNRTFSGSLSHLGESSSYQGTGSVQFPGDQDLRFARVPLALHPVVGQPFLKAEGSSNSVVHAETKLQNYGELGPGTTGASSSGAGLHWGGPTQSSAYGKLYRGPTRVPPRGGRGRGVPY
T2 sequence (O75909 whole entry partner): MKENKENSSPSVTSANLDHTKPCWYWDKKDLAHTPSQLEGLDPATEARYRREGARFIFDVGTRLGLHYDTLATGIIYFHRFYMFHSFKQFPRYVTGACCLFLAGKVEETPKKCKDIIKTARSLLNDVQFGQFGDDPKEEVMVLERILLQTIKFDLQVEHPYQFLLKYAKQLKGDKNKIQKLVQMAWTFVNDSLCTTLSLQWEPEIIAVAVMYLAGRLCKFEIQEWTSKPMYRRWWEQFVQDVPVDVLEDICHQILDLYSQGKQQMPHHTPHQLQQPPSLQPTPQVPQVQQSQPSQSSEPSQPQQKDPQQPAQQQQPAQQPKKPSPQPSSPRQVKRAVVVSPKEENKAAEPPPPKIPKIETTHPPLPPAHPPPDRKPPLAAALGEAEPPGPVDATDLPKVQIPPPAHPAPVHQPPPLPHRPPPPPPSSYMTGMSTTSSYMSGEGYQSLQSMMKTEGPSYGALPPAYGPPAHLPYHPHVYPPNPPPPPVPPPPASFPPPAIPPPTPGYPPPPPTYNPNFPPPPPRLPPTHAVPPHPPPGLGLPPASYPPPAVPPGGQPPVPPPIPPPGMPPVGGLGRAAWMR
T3 sequence (O75909 whole entry): as the sequence (O75909 whole entry partner) above
T3 sequence (Q9NYV4 whole entry partner): as the sequence (Q9NYV4 whole entry) above

SMILES | pIC50 [1] | DC50 [2] [nM] | (IC50 CDK12 high ATP) to (Degradation DC50 CDK12) ratio [2] | DC50 [3] [nM]
Brc1cnn2c(NCc3nc4ccccc4[nH]3)nc(N3C[C@H]4CCCN[C@H]4C3)nc12 [Example 199, N-[(1H-benzimidazol-2-yl)methyl]-8-bromo-2-[(4aR, 7aR)-octahydro-6H-pyrrolo[3,4-b]pyridin-6-yl]pyrazolo[1,5-a][1,3,5]triazin-4-amine] | 5.29 | 5.55 | 2661 | 2.32
Cc1ccc2[nH]c(CNc3nc(N4C[C@H]5C[C@@H]4CO5)nc4c(C5CC5)cnn34)nc2c1 [Example 196, 8-cyclopropyl-N-[(5-methyl-1H-benzimidazol-2-yl)methyl]-2-[(1R,4R)-2-oxa-5-azabicyclo[2.2.1]heptan-5-yl]pyrazolo[1,5-a][1,3,5]triazin-4-amine] | < 4.70 | 1.9 | 8068 | 2.29
Fc1ccc2[nH]c(CNc3nc(N4CCNCC4)nc4c(C5CC5)cnn34)nc2c1F [Example 174, 8-cyclopropyl-N-[(4,5-difluoro-1H-benzimidazol-2-yl)methyl]-2-(piperazin-1-yl)pyrazolo[1,5-a][1,3,5]triazin-4-amine] | < 4.70 | 0.645 | 1851 | 0.0976
Fc1ccc2[nH]c(CNc3nc(N4C[C@@H]5CCCN[C@@H]5C4)nc4c(C5CC5)cnn34)nc2c1F [Example 171, 8-cyclopropyl-N-[(4,5-difluoro-1H-benzimidazol-2-yl)methyl]-2-[(4aS,7aS)-octahydro-6H-pyrrolo[3,4-b]pyridin-6-yl]pyrazolo[1,5-a][1,3,5]triazin-4-amine] | < 4.70 | 2 | 3278 | 0.981
Fc1cccc2[nH]c(CNc3nc(N4CCOCC4)nc4c(C5CC5)cnn34)nc12 [Example 188, 8-cyclopropyl-N-[(4-fluoro-1H-benzimidazol-2-yl)methyl]-2-(morpholin-4-yl)pyrazolo[1,5-a][1,3,5]triazin-4-amine] | 4.82 | 1.26 | 460 | 0.815
CN1CC2CN(c3nc(NCc4nc5ccccc5[nH]4)n4ncc(Br)c4n3)CC2C1 (stereo not drawn) [Example 240, N-(1H-benzimidazol-2-ylmethyl)-8-bromo-2-(2-methyl-1,3,3a,4,6,6a-hexahydropyrrolo[3,4-c]pyrrol-5-yl)pyrazolo[1,5-a][1,3,5]triazin-4-amine] | 4.81 | 5.56 | >3596 | 1.09
CCNc1nc(NCc2nc3ccccc3[nH]2)n2ncc(Br)c2n1 [Example 227, N4-(1H-benzimidazol-2-ylmethyl)-8-bromo-N2-ethyl-pyrazolo[1,5-a][1,3,5]triazine-2,4-diamine] | 5.73 | 16.8 | 565 | 2.7
CC1(C)CN(c2nc(NCc3nc4ccccc4[nH]3)n3ncc(Br)c3n2)CCN1 [Example 216, N-[(1H-benzimidazol-2-yl)methyl]-8-bromo-2-(3,3-dimethylpiperazin-1-yl)pyrazolo[1,5-a][1,3,5]triazin-4-amine] | 4.82 | 3.31 | >1386 | 0.354
COc1cccc2[nH]c(CNc3nc(N4CCOCC4)nc4c(C5CC5)cnn34)nc12 [Example 213, 8-cyclopropyl-N-[(4-methoxy-1H-benzimidazol-2-yl)methyl]-2-morpholino-pyrazolo[1,5-a][1,3,5]triazin-4-amine] | 5.26 | 2.11 | 497 | 1.55
O[C@H]1C[C@@H](Nc2nc(NCc3nc4ccccc4[nH]3)n3ncc(Br)c3n2)C1 [Example 234, cis-3-[(4-{[(1H-benzimidazol-2-yl)methyl]amino}-8-bromopyrazolo[1,5-a][1,3,5]triazin-2-yl)amino]cyclobutan-1-ol] | 5.56 | 10.3 | 472 | 1.74
CN1C[C@@H]2C[C@H]1CN2c1nc(NCc2nc3ccccc3[nH]2)n2ncc(Br)c2n1 [Example 219, N-[(1H-benzimidazol-2-yl)methyl]-8-bromo-2-[(1S,4S)-5-methyl-2,5-diazabicyclo[2.2.1]heptan-2-yl]pyrazolo[1,5-a][1,3,5]triazin-4-amine] | < 4.70 | 16.2 | >1232 | 1.23
C[C@@H]1CN(c2nc(NCc3nc4ccccc4[nH]3)n3ncc(Br)c3n2)CCN1 [Example 168, N-[(1H-benzimidazol-2-yl)methyl]-8-bromo-2-[(3R)-3-methylpiperazin-1-yl]pyrazolo[1,5-a][1,3,5]triazin-4-amine] | 4.91 | 0.532 | 10872 | 0.973
Fc1ccc2[nH]c(CNc3nc(N4C[C@@H]5C[C@H]4CO5)nc4c(C5CC5)cnn34)nc2c1 [Example 185, 8-cyclopropyl-N-[(5-fluoro-1H-benzimidazol-2-yl)methyl]-2-[(1S,4S)-2-oxa-5-azabicyclo[2.2.1]heptan-5-yl]pyrazolo[1,5-a][1,3,5]triazin-4-amine] | < 4.70 | 2.49 | >7872 | 2
Fc1cccc2[nH]c(CNc3nc(N4C[C@@H]5C[C@H]4CO5)nc4c(C5CC5)cnn34)nc12 [Example 183, 8-cyclopropyl-N-[(4-fluoro-1H-benzimidazol-2-yl)methyl]-2-[(1S,4S)-2-oxa-5-azabicyclo[2.2.1]heptan-5-yl]pyrazolo[1,5-a][1,3,5]triazin-4-amine] | < 4.70 | 1.65 | 6199 | 1.64
Cc1ccc2[nH]c(CNc3nc(N4CCOCC4)nc4c(C5CC5)cnn34)nc2c1 [Example 193, 8-cyclopropyl-N-[(5-methyl-1H-benzimidazol-2-yl)methyl]-2-(morpholin-4-yl)pyrazolo[1,5-a][1,3,5]triazin-4-amine] | 4.97 | 2.68 | 653 | 0.958
Cc1ccc2[nH]c(CNc3nc(N4C[C@H]5C[C@@H]4CO5)nc4c(Br)cnn34)nc2c1 [Example 192, 8-bromo-N-[(5-methyl-1H-benzimidazol-2-yl)methyl]-2-[(1R,4R)-2-oxa-5-azabicyclo[2.2.1]heptan-5-yl]pyrazolo[1,5-a][1,3,5]triazin-4-amine] | 5.38 | 0.56 | 15180 | 0.589
OC[C@@H]1CCCCN1c1nc(NCc2nc3c(F)cccc3[nH]2)n2ncc(C3CC3)c2n1 [Example 189, [(2S)-1-(8-cyclopropyl-4-{[(4-fluoro-1H-benzimidazol-2-yl)methyl]amino}pyrazolo[1,5-a][1,3,5]triazin-2-yl)piperidin-2-yl]methanol] | 6.12 | 0.557 | 20 | 0.318
Brc1cnn2c(NCc3nc4ccccc4[nH]3)nc(N3CCC4(CCCN4)C3)nc12 (stereo not drawn) [Example 215, N-(1H-benzimidazol-2-ylmethyl)-8-bromo-2-(1,7-diazaspiro[4.4]nonan-7-yl)pyrazolo[1,5-a][1,3,5]triazin-4-amine] | 5.05 | 7.88 | >2537 | 6.49
